Experimental data reported in patent US12397067B2, “Sulfur- or heavy atom-containing nanoparticles, methods of making same, and uses thereof” (Cornell University, priority 2017, dated 2025).

Tests used:
[1] = in ethanol; cited from earlier work
[2] = Singlet oxygen quantum yield determination with DPBF sensor, relative to methylene blue; conditions: FIG. 15b inset, 635 nm exposure
Experimental: Determination of singlet oxygen quantum yields, ΦΔ. Measurements were carried out in ethanol with DPBF as a singlet oxygen detector molecule. The DPBF band at 410 nm and λmax of each dye were absorption matched across a particle series. For measurements of effective ΦΔ samples were concentration matched. The spectra were exposed and measured in a 100 μL quartz cuvette (Starna). Samples were evenly exposed to a 635 nm solid-state laser at 3 mW/cm^2 and 1 cm spot size. Measurements were started immediately after DPBF addition. The decrease of the 410 nm DPBF band was measured at various exposure times and corrected against a baseline. ΦΔ for each sample was calculated by comparing to MB (ΦΔ=0.520 in ethanol) as a standard (see example calculations).
Example calculation to determine singlet oxygen quantum yield, ΦΔ. ΦΔ(sample) is determined relative to a standard with known ΦΔ(standard) using equation (5):
[formula] Here, we used methylene blue (MB) as a standard with known ΦΔ(MB)=0.520. With the slopes, m, from the linear fits through the values of the 410 nm DPBF absorption band at different exposure times, ΦΔ(sample) can be calculated. With the values from FIG. 15b inset m(ATTO647N 7.5% iC′ dots)=0.00314 s^−1 and m(MB)=0.02506 s^−1, Φ^Δ (ATT0647N 7.5% iC′ dots)=0.520([…])=0.065.

[3] = test system: BxPC3 pancreatic cancer cells; test: Cell toxicity study, Presto Blue % viability; type: cell-based; conditions: 14 mM (10% of typical imaging concentration), 16 hours
Experimental: Cell toxicity studies. BxPC3 pancreatic cancer cells were maintained in RPMI 1640 supplemented with 10% FBS at 37° C. with 5% CO2. To measure effects of C′ dots or βME on cells, cells at ˜70% confluence were washed with PBS, exposed to trypsin, resuspended, and dispensed into 96-well tissue culture plates (20,000 cells per well). Cells were allowed to settle overnight, forming a monolayer ˜70-80% confluent. The medium was removed from each well, and replaced with medium supplemented with varying amounts of either 60% srC′ dots or βME, or with DMSO (carrier agent) alone as a control, as well as 1× Pen-Strep antibiotic. Cells were then incubated for 6 days (srC′ dots) or 16 hours ((ME). Following incubation, medium was removed, cells washed with fresh medium and then incubated for one hour with fresh medium and Presto Blue per the manufacturer's recommendations. The absorbance of the Presto Blue was determined at 570 nm (background 600 nm) using a Tecan Safire microplate reader. Absorption was compared to that of a blank (medium plus Presto Blue in unused wells) to determine % viability of remaining cells, with the DMSO control lane defined as 100% viability, and the empty wells defined as 0% viability. All experiments were performed in triplicate.

Structure (SMILES)	singlet oxygen quantum yield, ΦΔ (known value of standard) [1]	slope m of linear fit of ln relative DPBF absorption at 410 nm vs exposure time [2] [s^−1]	%-cell viability [3]
CN(C)c1ccc2nc3ccc(=[N+](C)C)cc-3sc2c1 [MB, methylene blue]	0.520	0.02506	
OCCS [βME, β-mercaptoethanol]			substantial cell death
